What was measured:
[1] = statement without data; prodrugs described in WO 2016/187316 and WO 2018/094275; cited from earlier work
[2] = tested on: patients having newly diagnosed AML; assay: Example 5: alvocidib plus daunorubicin/cytarabine (ACD) with TLS monitoring, treatment-emergent adverse events classified as TLS; assay type: in vivo, human
Description: This study will evaluate the safety and efficacy of alvocidib in combination with cytarabine/daunorubicin (7+3) in patients with newly diagnosed AML. Treatment consists of increasing dose levels of alvocidib starting at 20 mg/m^2 as a 30-minute IV bolus followed by 30 mg/m^2 over 4 hours on days 1-3, cytarabine 100 mg/m^2/day by continuous IV infusion on days 5-11, followed by (e.g., followed about 30 minutes later by) daunorubicin 60 mg/m^2 IV on days 5-7. Reinduction therapy with alvocidib (same dose as induction) days 1-3, followed by cytarabine 100 mg/m^2/day continuous IV on days 5-9, and daunorubicin 45 mg/m^2 IV days 5-6 is recommended in patients with >10% and >5% cellularity and blasts, respectively.
For patients at high risk for TLS, including those with risk scores of greater than or equal to 2 according to Table 1, those with monocytic leukemia phenotype, or those with a history of FLT3 positive AML, monitoring will include: (i) obtaining a STAT serum potassium at the end of an alvocidib infusion; (ii) obtaining a serum potassium 2 hours after the end of an alvocidib infusion, (iii) obtaining a full TLS panel 4 hours after the end of an alvocidib infusion, and (iv) monitoring fibrinogen levels at baseline and then as clinically indicated. If there is evidence of clinically meaningful TLS, a TLS panel will be obtained every 2 hours during the first 24 hours after the end of an alvocidib infusion (assessment of LDH levels at least once every 24 hours is also recommended). If there is no evidence of clinically meaningful TLS, a TLS panel will be obtained every 4 hours during the first 24 hours after the end of an alvocidib infusion (assessment of LDH levels at least once every 24 hours is also recommended). If, after the first 24 hours after the end of an alvocidib infusion, there is no evidence of TLS, a TLS panel will be obtained approximately every 6 hours for the remainder of alvocidib treatment, and then every 12 hours after completion of alvocidib during daunorubicin and cytarabine treatment (assessment of LDH levels at least once every 24 hours is also recommended).
For patients not at high risk for TLS, tumor lysis evaluations will be monitored at the start of alvocidib treatment and approximately every 4 hours thereafter for 24 hours. Laboratory studies during this period will be run as a “STAT” to ensure the results are available in a timely manner. If there is no evidence of TLS during first the 24 hours, then tumor lysis evaluations will be monitored approximately every 6-8 hours for the remainder of alvocidib treatment, and then every 12 hours after the completion of alvocidib during cytarabine and daunorubicin treatment. Fibrinogen levels will be monitored at baseline and then as clinically indicated.
Patients were treated with ACD according to a treatment regimen similar to that described in Example 2, and monitored for TLS according to the monitoring protocols described in Example 2. Briefly, treatment consisted of increasing dose levels of alvocidib starting at 20 mg/m^2 as a 30-minute (±10 minutes) IV bolus followed by 30 mg/m^2 as a 4-hour (±15 minutes) IV infusion on days 1-3, followed by daunorubicin 60 mg/m^2 IV on days 5-7 via IV bolus of up to 15 minutes (±5 minutes) in duration each day, followed by (e.g., followed immediately by) cytarabine 100 mg/m^2/day by 24-hour (±2 hours) continuous IV infusion on days 5-11. Reinduction therapy with alvocidib (same dose as induction) days 1-3, followed by daunorubicin 45 mg/m^2 IV via IV bolus of up to 15 minutes (±5 minutes) in duration each day on days 5-6, followed by (e.g., followed immediately by) cytarabine 100 mg/m^2/day continuous, 24-hour IV infusion (±2 hours) on days 5-9, was recommended in patients with evidence of residual leukemia, defined as >5% bone marrow blasts plus >10% cellularity, based on day 14 (±3 days) bone marrow. […]

[3] = tested on: cancer patients being treated with alvocidib; assay: Clinical trials using a TLS monitoring protocol described herein: deaths attributed to TLS; assay type: in vivo, human; conditions: to date
Description: Current protocols for monitoring the development of TLS in patients vary greatly due to interindividual clinician experience and different standards of care among institutions. The risk for and rapid development of TLS in cancer patients being treated with alvocidib presents a need for more precise but clinically practical TLS monitoring protocols that allow subjects to remain on alvocidib treatment and avoid dose-limiting TLS. To date, there have been no deaths attributed to TLS in clinical trials using a TLS monitoring protocol described herein.

[4] = Study Total, all dose levels (N = 31)
[5] = alvocidib 30/40 mg/m^2 (bolus/infusion) days 1-3 with daunorubicin and cytarabine (N = 3)
[6] = alvocidib 30/60 mg/m^2 (bolus/infusion) days 1-3 with daunorubicin and cytarabine (N = 22)

SMILES | oral bioavailability [1] | Tumor lysis syndrome, treatment-emergent adverse events, number of patients [2, 4] | Tumor lysis syndrome, treatment-emergent adverse events, percent of patients [2, 4] | Tumor lysis syndrome, treatment-emergent adverse events, number of patients ([2]; alvocidib 20/30 mg/m^2 (bolus/infusion) days 1-3 with daunorubicin and cytarabine (N = 3)) | Tumor lysis syndrome, treatment-emergent adverse events, number of patients [2, 5] | Tumor lysis syndrome, treatment-emergent adverse events, percent of patients [2, 5] | Tumor lysis syndrome, treatment-emergent adverse events, number of patients ([2]; alvocidib 30/50 mg/m^2 (bolus/infusion) days 1-3 with daunorubicin and cytarabine (N = 3)) | Tumor lysis syndrome, treatment-emergent adverse events, number of patients [2, 6] | Tumor lysis syndrome, treatment-emergent adverse events, percent of patients [2, 6] | deaths attributed to TLS [3]
CN1CC[C@H](c2c(OP(=O)(O)O)cc(O)c3c(=O)cc(-c4ccccc4Cl)oc23)[C@H](O)C1 [Ia] | orally bioavailable |  |  |  |  |  |  |  |  | 
CN1CC[C@H](c2c(O)cc(O)c3c(=O)cc(-c4ccccc4Cl)oc23)[C@H](O)C1 [Alvocidib, 2-(2-chlorophenyl)-5,7-dihydroxy-8-[(3 S,4R)-3-hydroxy-1-methylpiperidin-4-yl]chromen-4-one] |  | 8 | 25.8% | 0 | 1 | 33.3% | 0 | 7 | 31.8% | no deaths

Reference: US20210379042A1, “METHODS FOR MONITORING TUMOR LYSIS SYNDROME” (Sumitomo Dainippon Pharma Oncology, Inc., priority 2018, published 2021)
